Here are results for three molecules from paper PMC5363837 (Circulation, 2017).

The target of test [1] is T1, human apelin receptor (Homo sapiens, UniProt P35414).
T1 sequence (P35414 1-380): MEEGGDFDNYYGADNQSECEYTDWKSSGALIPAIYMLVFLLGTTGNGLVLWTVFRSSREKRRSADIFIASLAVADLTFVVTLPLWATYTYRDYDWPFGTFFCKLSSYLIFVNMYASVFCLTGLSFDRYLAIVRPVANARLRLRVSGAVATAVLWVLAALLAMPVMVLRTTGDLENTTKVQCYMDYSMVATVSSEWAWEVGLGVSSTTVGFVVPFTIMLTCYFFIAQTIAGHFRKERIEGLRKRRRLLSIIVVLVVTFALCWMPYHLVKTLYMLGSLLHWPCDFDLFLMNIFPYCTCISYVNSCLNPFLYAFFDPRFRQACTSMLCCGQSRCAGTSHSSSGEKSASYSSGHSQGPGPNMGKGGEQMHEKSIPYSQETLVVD
Briefly: Competition binding in CHO-K1 cells expressing the human apelin receptor (Cerep). The arrangement: host or cells: CHO-K1.
Procedure: Comptetition Binding Experiments
(§1) For structure activity studies competition binding experiments were conductedin triplicate in
(§2) homogenate of pooled human LV from cardiom yopathy patients as previousl y described 1.
(§3) Homogenate of human LV wa s incubat ed for 90 min with 0.1nmol/L [Glp 65,Nle75, T yr 77]
(§4) (0.5pmol/ L-10μmol/L) ( n=3 each). Non- specific binding was defined using 1μmol/L
(§5) Equilibrium was broken b y centrifugation (20,000g for 10 min, 4 °C). Pellets
(§6) were washed with Tris-H Cl buffer (50 mmol/ L, pH 7.4, 4 °C), re-centrifuged and bound
(§7) radioactivity in final pellets counted. Data from triplicate experiments wer e anal yz ed using th e
(§8) iterative non-linear curve fitting programs EBDA and LIGAND (KELL package, Biosoft, UK)
(§9) or GraphPad Prism6 and to derive values of affinit y (ex pressed as the –log 10 of the dissociation
constant (pKi ±sem) ) and recepto r densit y (BM AX ± sem).The pK i and B M AX values for the thr ee

Test [2] concerns the target T1, human apelin receptor. Briefly: Receptor internalization assay (DiscoveRx), U2OS cells. It is filed as cell-based.
Source text: (§10) Inhibition of cAMP accumulation, β-arrestin recruitment, and receptor internalization assays were used to determine values of potency (pD2 [–log10 EC50]) and maximum response (EMAX). pD2 values were compared by using 1-way ANOVA with Tukey multiple comparison.
Responses measured in r elative light units were fitted to 4 parameter logistic
concentration response curves in GraphPad Prism 6 (La J olla, CA, USA) and values of
potenc y,pD 2 ( -log10 EC 50 (where EC 50 is the concentration producing half maximal response) ),
and maximum response (EM AX ) w ere calculat ed fo r each compound.Data were subs equentl y
Respon ses measured in relatve li ght units wer e fitted
(§11) to 4 parameter logistic concentration response curves in GraphPad Prism 6 (La J olla, CA,
(§12) USA) and values o f pD 2 ( -log10 EC 50) and maximum response (EM AX ) w er e calcul at ed for each
(§13) used as the refer ence ago nists in each assa y.
Internalisation a ssa ys w ere co nduct ed as previously des cribed1.U2OS cells artificially
ex pressing the human ap elin recepto r wer e seeded in Cell Plating medium in 96 -well plates and
incubated for 48 hours at 37 °C in 5% CO 2.
the cells for 3 hours at 37 °C. This was followed b y incubation with the detection reagents fo r
90 minutes at room temperature and luminescen ce readin g .D at a were an al y s ed as described
for the β -arrestin assa y .
Test [3] concerns the target T1, human apelin receptor. Briefly: Competition binding of ELA-21 in normal and PAH human LV and RV homogenate. The arrangement: host or cells: CHO-K1. As to conditions: pooled homogenate, mean±SEM, n=3. The procedure: Experiments were conducted in homogenate of human ventricle or Chinese hamster ovary (CHO)-K1 cells expressing the human apelin receptor.
To investigate whether the affinit y of ELA peptides or the density of ELA binding sites is altered in human PAH competition binding experiments were repeated as described above using ELA-21 as the com peting li gand in LV and RV from pooled homogenate from six patients transplanted for PAH and LV and RV from six normal hearts as controls. Datafrom triplicate experiments were anal yzed usin g the iter ative non -linear curve fitting programs EBDA and LIGAND (KELL package, Biosoft, UK) to determine values of affinity (K D) and recepto r densit y (B M AX ). Values were compared for LV and RV between P AH and controls using Student’s 2- tailed t -test. […]

For test [4], the target named is T1, human apelin receptor. Briefly: β-arrestin recruitment assay (DiscoveRx), CHO-K1 cells. Type of test: cell-based. The arrangement: host or cells: CHO-K1. In general terms: Recruitment of arrestin is a read-out of receptor activation apart from second messengers.
Source text: as §10
β-Arrestin ass a ys wer e conducted as previousl y described1.CHO- K1 cells artificially
ex pressing the human ap elin recepto r wer e seeded in C ell P lating medium into 96-well plates
3μmol/L ) wer e diluted in Cell Plating mediumand added to the cells for 90 minutes at 37 °C..
Detection reagents were then added fo ra 2- hour incubation at room temperature
followed b y chemiluminescence r eadin g. Respon ses measured in relatve li ght units wer e fitted
as §11, §12, §13
For test [5], the target named is T1, human apelin receptor. Briefly: Competition binding, [125I]apelin-13, homogenate of human left ventricle. The conditions noted are these: read-out: pKi in human LV (converted).
Procedure: as §1, §2, §3
[125 I] apelin-13 in assa y buffer (mmol/ L: Tris 50, MgCl2 5, pH 7.4, 22 °C), in the presence of
as §4, §5, §6, §7, §8, §9
Test [6] addresses T1, human apelin receptor. Briefly: Inhibition of forskolin-induced cAMP accumulation (DiscoveRx), CHO-K1 cells. Also on record: host or cells: CHO-K1. Type of test: cell-based.
Test [7] deals with T2, human apelin receptor expressed in CHO-K1 cells (human, UniProt P35414 1-380).
T2 sequence (looked up): T1 sequence (P35414 1-380)
Briefly: cell-based or functional assay.

Test [8] concerns the target T2, human apelin receptor expressed in …. Briefly: radioligand binding; competition binding in CHO-K1 cells expressing the human apelin receptor. The conditions noted are these: one partner purified.

Bridge positions count the residues as written; N and C are the ends. Ends that are not written are not given here. Peptide text beside a SMILES is read from it.

In the case of `CSCC[C@@H]1NC(=O)[C@@H](N)CSSC[C@@H](C(=O)N[C@@H](CCCNC(=N)N)C(=O)N[C@H](C(=O)N2CCC[C@H]2C(=O)N[C@@H](Cc2ccccc2)C(=O)N2CCC[C@H]2C(=O)O)C(C)C)NC(=O)[C@H](Cc2c[nH]cn2)NC(=O)[C@H](CC(C)C)NC(=O)[C@@H]2CCCN2C1=O` [cyclo[1–6]ELA-11] (HELM PEPTIDE1{C.M.P.L.H.C.R.V.P.F.P}$PEPTIDE1,PEPTIDE1,1:R3-6:R3$$$V2.0; N-terminus and C-terminus assumed), the “fold drop in affinity versus ELA-32, ELA-21 and ELA-14” value on human apelin receptor [1] was found to be 100 fold.
Take `CSCC[C@H](NC(=O)[C@@H]1CSSC[C@H](NC(=O)[C@H](CC(N)=O)NC(=O)[C@H](Cc2c[nH]cn2)NC(=O)[C@H](CCCCN)NC(=O)[C@H](CCCNC(=N)N)NC(=O)[C@@H](N)CC(C)C)C(=O)N[C@@H](CC(C)C)C(=O)N[C@@H](CCC(N)=O)C(=O)N[C@@H](CCCNC(=N)N)C(=O)N[C@@H](CCCNC(=N)N)C(=O)N1)C(=O)N1CCC[C@H]1C(=O)N[C@@H](CC(C)C)C(=O)N[C@@H](Cc1c[nH]cn1)C(=O)N[C@@H](CO)C(=O)N[C@@H](CCCNC(=N)N)C(=O)N[C@H](C(=O)N1CCC[C@H]1C(=O)N[C@@H](Cc1ccccc1)C(=O)N1CCC[C@H]1C(=O)O)C(C)C` [ELA-21]: the Emax on human apelin receptor [2] (U2OS) was 96 ± 2%; on human apelin receptor [4] (CHO-K1), 102 ± 1%; on human apelin receptor [6] (CHO-K1), 101 ± 1%. In addition, the EC50 at human apelin receptor [2] (U2OS cells, 3 hours, 37°C, mean±SEM, n=3-5 assays, 2-6 replicates, read-out: Internalization pD2 (converted)) was 0.282 nM; on human apelin receptor [4] (read-out: β-Arrestin pD2 (converted)) it was 0.132 nM; at human apelin receptor [6] (read-out: cAMP pD2 (converted)) it was 0.372 nM. Moreover, the Ki on human apelin receptor [3] (PAH human left ventricle, read-out: pKi, LV PAH (converted)) was 0.347 nM; on human apelin receptor [3] (PAH human right ventricle, read-out: pKi, RV PAH (converted)), 0.501 nM; on human apelin receptor [3] (normal human left ventricle, read-out: pKi, LV normal (converted)) it was 0.49 nM; at human apelin receptor [3] (normal human right ventricle, read-out: pKi, RV normal (converted)), 1.05 nM; at human apelin receptor [5], 3.02 nM.
Turning to CMPLHCRVPFP (disulfide 1-6) [cyclo[1–6]ELA-11], in test [7], the “cAMP assay, pD2 (-log10 EC50)” value was found to be 9.42 and the “β-arrestin recruitment assay, pD2 (-log10 EC50)” value is 7.67. The pKi in test [8] stood at 7.27.

One may read the Emax as the maximal effect, on the per cent scale that the assay sets. A word on the pKi: it is the Ki on a negative log10 scale, so that one unit is a factor of ten.
